What all share (assay type): in vivo
One experiment deals with Abutilon theophrasti. The experiment in a line: Test Example 4: herbicidal effect by application to foliage (diluvial soil, plastic box). The note with it: for M (Abutilon theophrasti) herbicidal effect grade: foliage application; for herbicidal effect, M (Abutilon theophrasti): application to foliage. In outline: (§1)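 Seeds sown in sterilized diluvial soil, covered ~1.5 cm, grown 14 days in greenhouse at 25° C. to 30° C. Emulsion formulation diluted in water to set rate (g/ha) and sprayed onto stems and leaves. Effect scored visually 3 weeks later on 0–5 scale (5 = ≥90% herbicidal ratio, 0 = ≤5%).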

The next experiment relates to Alopecurus myosuroides. The experiment is described as above. The note with it: for J (Alopecurus myosuroides) herbicidal effect grade: foliage application; for herbicidal effect, J (Alopecurus myosuroides): application to foliage. In outline:
as §1

Another experiment deals with Lolium multiflorum Lam. Described as above. The note with it: for K (Lolium multiflorum Lam.) herbicidal effect grade: foliage application; for herbicidal effect, K (Lolium multiflorum Lam.): application to foliage. In a few lines:
as §1

The subject of the next experiment is Avena fatua. The description is as above. The note with it: for I (Avena fatua) herbicidal effect grade: foliage application; for herbicidal effect, I (Avena fatua): application to foliage. In outline:
as §1

The next experiment deals with Digitaria ciliaris. Described as above. The note with it: for F (Digitaria ciliaris) herbicidal effect grade: foliage application; for herbicidal effect, F (Digitaria ciliaris): application to foliage. In outline: as §1
The test system of the next experiment is Amaranthus retroflexus. The experiment is described as above. The note with it: for N (Amaranthus retroflexus) herbicidal effect grade: foliage application; for herbicidal effect, N (Amaranthus retroflexus): application to foliage. In a few lines:
as §1

The subject of experiment [1] is Echinochloa crus-galli var. crus-galli. The experiment is described as above. The note with it: for H (Echinochloa crus-galli var. crus-galli) herbicidal effect grade: foliage application; for herbicidal effect, H (Echinochloa crus-galli var. crus-galli): application to foliage. In outline:
as §1

A further experiment relates to Chenopodium album. The experiment is described as above. The note with it: for O (Chenopodium album) herbicidal effect grade: foliage application; for herbicidal effect, O (Chenopodium album): application to foliage. In outline: as §1
For the next experiment, the system named is Setaria viridis. Described as above. The note with it: for G (Setaria viridis) herbicidal effect grade: foliage application; for herbicidal effect, G (Setaria viridis): application to foliage. In outline:
as §1

Another experiment relates to Stellaria media. The description is as above. The note with it: for P (Stellaria media) herbicidal effect grade: foliage application; for herbicidal effect, P (Stellaria media): application to foliage. In a few lines:
as §1

Another experiment deals with Apera spica-venti. Described as above. The note with it: for L (Apera spica-venti.) herbicidal effect grade: foliage application; for herbicidal effect, L (Apera spica-venti.): application to foliage. In outline:
as §1

The subject of the next experiment is Scirpus juncoides. The experiment in a line: Test Example 2: herbicidal activity, application during weed generation in submerged conditions. The note with it: Eighteenth Table. In a few lines:
(§2)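 Scored three weeks post-application on a 0–5 scale (5: ≥90% herbicidal ratio, almost withered; 0: ≤5%). Plants raised from mixed-sown seed in submerged alluvial soil (4 cm water), 25–30 °C greenhouse; water-diluted emulsion applied onto water surface at one- to two-leaf stage, dose in g/ha.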

The test system of experiment [2] is Echinochloa oryzacola Vasing. The experiment is described as above. The note with it: Eighteenth Table. In outline: as §2
Another experiment has as its system Monochoria vaginalis. Described as above. The note with it: Eighteenth Table; application herbicide amount 320 g/ha. In a few lines:
as §2

In a further experiment the test system is Veronica persica. Nature of the experiment: Test Example 4: herbicidal effect by application to foliage (diluvial soil, plastic box). The note with it: for herbicidal effect, R (Veronica persica): application to foliage. In outline: as §1
The mark [3] stands for this setting: application herbicide amount 320 g/ha.
[4] abbreviates: application herbicide amount 260 g/ha.

Molecules are shown by their SMILES.

Turning to `CC(c1nnc2c(C(=O)Nc3nnnn3C)ccc(C(F)(F)F)n12)[S+](C)[O-]` (centres unmarked) [2-053], the “M (Abutilon theophrasti) herbicidal effect grade” value in the experiment on Abutilon theophrasti (320 g/ha) is reported as 5 (Herbicidal ratio of 90% or more (almost completely withered)). Besides, the “J (Alopecurus myosuroides) herbicidal effect grade” value with Alopecurus myosuroides (320 g/ha) is given as 5 (Herbicidal ratio of 90% or more (almost completely withered)). In addition, the “K (Lolium multiflorum Lam.) herbicidal effect grade” value in the experiment on Lolium multiflorum Lam. (320 g/ha) was 4 (Herbicidal ratio of 70% or more and less than 90%). The “I (Avena fatua) herbicidal effect grade” value in the experiment with Avena fatua (320 g/ha) is listed as 5 (Herbicidal ratio of 90% or more (almost completely withered)). Moreover, in the experiment on Digitaria ciliaris (320 g/ha), the “F (Digitaria ciliaris) herbicidal effect grade” value was 5 (Herbicidal ratio of 90% or more (almost completely withered)). Further, the “N (Amaranthus retroflexus) herbicidal effect grade” value in the experiment on Amaranthus retroflexus (320 g/ha) is reported as 5 (Herbicidal ratio of 90% or more (almost completely withered)). The “H (Echinochloa crus-galli var. crus-galli) herbicidal effect grade” value in [1] (320 g/ha) is 5 (Herbicidal ratio of 90% or more (almost completely withered)). For the same compound, the “O (Chenopodium album) herbicidal effect grade” value in the experiment on Chenopodium album (320 g/ha) is 5 (Herbicidal ratio of 90% or more (almost completely withered)). Further, the “G (Setaria viridis) herbicidal effect grade” value with Setaria viridis (320 g/ha) is recorded as 5 (Herbicidal ratio of 90% or more (almost completely withered)). Also, the “P (Stellaria media) herbicidal effect grade” value with Stellaria media (320 g/ha) was 5 (Herbicidal ratio of 90% or more (almost completely withered)). Besides, the “L (Apera spica-venti.) herbicidal effect grade” value with Apera spica-venti. (320 g/ha) is 5 (Herbicidal ratio of 90% or more (almost completely withered)). In addition, in the experiment with Scirpus juncoides (setting [3]), the “B (Scirpus juncoides) herbicidal ratio grade” value is 4 (Herbicidal ratio of 70% or more and less than 90%). Further, in experiment [2] (setting [3]), the “A (Echinochloa oryzicola Vasing.) herbicidal ratio grade” value is given as 5 (Herbicidal ratio of 90% or more (almost completely withered)). Besides, in the experiment with Monochoria vaginalis, the “C (Monochoria vaginalis) herbicidal ratio grade” value is 4 (Herbicidal ratio of 70% or more and less than 90%).

For the compound `CC(C)Nc1nnc2c(C(=O)Nc3nnnn3C)ccc(C(F)(F)F)n12` [2-066], the “M (Abutilon theophrasti) herbicidal effect grade” value with Abutilon theophrasti (320 g/ha) is 4 (Herbicidal ratio of 70% or more and less than 90%). Moreover, in the experiment on Alopecurus myosuroides (320 g/ha), the “J (Alopecurus myosuroides) herbicidal effect grade” value is 3 (Herbicidal ratio of 40% or more and less than 70%). Further, the “K (Lolium multiflorum Lam.) herbicidal effect grade” value in the experiment with Lolium multiflorum Lam. (320 g/ha) is 3 (Herbicidal ratio of 40% or more and less than 70%). The “I (Avena fatua) herbicidal effect grade” value with Avena fatua (320 g/ha) was 2 (Herbicidal ratio of 20% or more and less than 40%). The “F (Digitaria ciliaris) herbicidal effect grade” value in the experiment with Digitaria ciliaris (320 g/ha) is listed as 5 (Herbicidal ratio of 90% or more (almost completely withered)). The “N (Amaranthus retroflexus) herbicidal effect grade” value with Amaranthus retroflexus (320 g/ha) is on record as 5 (Herbicidal ratio of 90% or more (almost completely withered)). Moreover, in [1] (320 g/ha), the “H (Echinochloa crus-galli var. crus-galli) herbicidal effect grade” value is on record as 5 (Herbicidal ratio of 90% or more (almost completely withered)). For the same compound, in the experiment with Chenopodium album (320 g/ha), the “O (Chenopodium album) herbicidal effect grade” value is on record as 5 (Herbicidal ratio of 90% or more (almost completely withered)). The “G (Setaria viridis) herbicidal effect grade” value with Setaria viridis (320 g/ha) is recorded as 5 (Herbicidal ratio of 90% or more (almost completely withered)). Also, in the experiment with Stellaria media (320 g/ha), the “P (Stellaria media) herbicidal effect grade” value is listed as 5 (Herbicidal ratio of 90% or more (almost completely withered)). For the same compound, the “L (Apera spica-venti.) herbicidal effect grade” value in the experiment with Apera spica-venti. (320 g/ha) is 3 (Herbicidal ratio of 40% or more and less than 70%). In addition, the “R (Veronica persica) herbicidal effect grade” value in the experiment with Veronica persica (foliage application, 320 g/ha) is 5 (Herbicidal ratio of 90% or more (almost completely withered)). In addition, the “A (Echinochloa oryzicola Vasing.) herbicidal ratio grade” value in experiment [2] (setting [3]) was 3 (Herbicidal ratio of 40% or more and less than 70%). Further, the “C (Monochoria vaginalis) herbicidal ratio grade” value with Monochoria vaginalis is 3 (Herbicidal ratio of 40% or more and less than 70%).

On to `Cn1nnnc1NC(=O)c1ccc(C(F)(F)F)n2c(CO)nnc12` [2-108], for which the “herbicidal effect, M (Abutilon theophrasti)” value in the experiment with Abutilon theophrasti (320 g/ha) is 5 (Herbicidal ratio of 90% or more (almost completely withered)). In addition, the “herbicidal effect, J (Alopecurus myosuroides)” value in the experiment on Alopecurus myosuroides (320 g/ha) is given as 0 (Herbicidal ratio of 5% or less (almost no effect)). For the same compound, the “herbicidal effect, K (Lolium multiflorum Lam.)” value in the experiment on Lolium multiflorum Lam. (320 g/ha) is listed as 0 (Herbicidal ratio of 5% or less (almost no effect)). For the same compound, the “herbicidal effect, I (Avena fatua)” value in the experiment on Avena fatua (320 g/ha) is 1 (Herbicidal ratio of 5% or more and less than 20%). Besides, the “herbicidal effect, F (Digitaria ciliaris)” value in the experiment with Digitaria ciliaris (320 g/ha) was 4 (Herbicidal ratio of 70% or more and less than 90%). Besides, the “herbicidal effect, N (Amaranthus retroflexus)” value with Amaranthus retroflexus (320 g/ha) was 5 (Herbicidal ratio of 90% or more (almost completely withered)). For the same compound, the “herbicidal effect, H (Echinochloa crus-galli var. crus-galli)” value in experiment [1] (320 g/ha) was 5 (Herbicidal ratio of 90% or more (almost completely withered)). Moreover, the “herbicidal effect, O (Chenopodium album)” value in the experiment with Chenopodium album (320 g/ha) is 5 (Herbicidal ratio of 90% or more (almost completely withered)). Also, the “herbicidal effect, G (Setaria viridis)” value in the experiment on Setaria viridis (320 g/ha) was 3 (Herbicidal ratio of 40% or more and less than 70%). Moreover, in the experiment with Stellaria media (320 g/ha), the “herbicidal effect, P (Stellaria media)” value was 5 (Herbicidal ratio of 90% or more (almost completely withered)). Besides, in the experiment with Apera spica-venti. (320 g/ha), the “herbicidal effect, L (Apera spica-venti.)” value is given as 0 (Herbicidal ratio of 5% or less (almost no effect)). Moreover, in the experiment with Veronica persica (320 g/ha), the “herbicidal effect, R (Veronica persica)” value is given as 5 (Herbicidal ratio of 90% or more (almost completely withered)). For the same compound, in the experiment on Scirpus juncoides (setting [3]), the “B (Scirpus juncoides) herbicidal ratio grade” value is 1 (Herbicidal ratio of 5% or more and less than 20%). The “A (Echinochloa oryzicola Vasing.) herbicidal ratio grade” value in [2] (setting [3]) was 0 (Herbicidal ratio of 5% or less (almost no effect)).

For the compound `Cn1nnnc1NC(=O)c1ccc(C(F)(F)F)n2c(C=O)nnc12` [2-109], the “herbicidal effect, M (Abutilon theophrasti)” value in the experiment on Abutilon theophrasti (256 g/ha) is on record as 5 (Herbicidal ratio of 90% or more (almost completely withered)). Further, in the experiment with Alopecurus myosuroides (256 g/ha), the “herbicidal effect, J (Alopecurus myosuroides)” value is listed as 0 (Herbicidal ratio of 5% or less (almost no effect)). Besides, the “herbicidal effect, K (Lolium multiflorum Lam.)” value with Lolium multiflorum Lam. (256 g/ha) is 1 (Herbicidal ratio of 5% or more and less than 20%). Also, in the experiment with Avena fatua (256 g/ha), the “herbicidal effect, I (Avena fatua)” value was 1 (Herbicidal ratio of 5% or more and less than 20%). Also, in the experiment on Digitaria ciliaris (256 g/ha), the “herbicidal effect, F (Digitaria ciliaris)” value was 3 (Herbicidal ratio of 40% or more and less than 70%). The “herbicidal effect, N (Amaranthus retroflexus)” value in the experiment with Amaranthus retroflexus (256 g/ha) is given as 5 (Herbicidal ratio of 90% or more (almost completely withered)). Moreover, the “herbicidal effect, H (Echinochloa crus-galli var. crus-galli)” value in [1] (256 g/ha) was 4 (Herbicidal ratio of 70% or more and less than 90%). In addition, the “herbicidal effect, O (Chenopodium album)” value with Chenopodium album (256 g/ha) is given as 5 (Herbicidal ratio of 90% or more (almost completely withered)). Further, the “herbicidal effect, G (Setaria viridis)” value in the experiment on Setaria viridis (256 g/ha) was 2 (Herbicidal ratio of 20% or more and less than 40%). In the experiment with Stellaria media (256 g/ha), the “herbicidal effect, P (Stellaria media)” value is 5 (Herbicidal ratio of 90% or more (almost completely withered)). In the experiment with Apera spica-venti. (256 g/ha), the “herbicidal effect, L (Apera spica-venti.)” value is listed as 0 (Herbicidal ratio of 5% or less (almost no effect)). In addition, the “herbicidal effect, R (Veronica persica)” value in the experiment with Veronica persica (256 g/ha) is 5 (Herbicidal ratio of 90% or more (almost completely withered)). Moreover, in the experiment on Scirpus juncoides (setting [4]), the “B (Scirpus juncoides) herbicidal ratio grade” value was 1 (Herbicidal ratio of 5% or more and less than 20%). In addition, in experiment [2] (setting [4]), the “A (Echinochloa oryzicola Vasing.) herbicidal ratio grade” value is 1 (Herbicidal ratio of 5% or more and less than 20%).

The values are drawn from patent US9708314B2, “Heterocyclic amide compound” (NISSAN CHEMICAL INDUSTRIES, LTD., priority 2013, dated 2017).
